“Also recorded” adds a separate entry of the source.
Columns and labels:
cAMP = cAMP levels in hippocampal slices (Scintillation Proximity Assay); type: cell-based
Experimental: Hippocampal slices were treated with fisetin using the conditions where maximal stimulation of CREB phosphorylation and facilitation of LTP were observed. Briefly, hippocampal slices in ACSF were treated with 1 μM fisetin for 5 minutes (fisetin) or 3 μM rolipram for 30 minutes (rolipram) and then either immediately frozen or treated with […] forskolin for an additional 15 minutes (rolipram+forskolin; fisetin+forskolin) prior to freezing. Additional slices were treated only with 5 μM forskolin for 15 minutes (forskolin). Forskolin, an activator of adenylyl cyclase, and rolipram were used as positive controls. The levels of cAMP in the slices were measured using a Scintillation Proximity Assay and presented as pmole/mg protein±S.D.

PC12 cells = conditions: at 10 μM; Sagara et al. 2004; cited from earlier work
protein kinase A = conditions: PC12 cells; Sagara et al. 2004; cited from earlier work
ERK1 (p44) = ERK1 (p44) phosphorylation in hippocampal slices (immunoblotting, densitometry); type: cell-based, rat; conditions: for p44 phosphoprotein signal normalized to total protein: 1 μM
Experimental: (§1) Western blots panels A and B) of hippocampal slices treated with (A) 1 μM fisetin or (B) pretreated for 30 minutes with either 50 μM PD98059 (PD) or 10 μM U0126 (U) before the addition of 1 μM fisetin for 5 minutes, which blots were probed with the indicated antibodies.
(§2) Hippocampal slices in artificial cerebral spinal fluid (ACSF) were treated with either 1 μM fisetin for 5-20 minutes or pretreated for 30 minutes with either 50 μM PD98059 (PD) or 10 μM U0126 (J) before the addition of 1 μM fisetin for 5 minutes. Equal amounts of protein were analyzed by SDS-PAGE and immunoblotting with antibodies to phospho-ERK and phospho-CRFB along with antibodies to the unphosphorylated forms of the proteins. The average phosphoprotein signal from the blots was quantified by densitometry and normalized to total protein was plotted±S.D.

CREB = CREB phosphorylation in hippocampal slices (immunoblotting, densitometry); type: cell-based, rat; conditions: for CREB phosphoprotein signal normalized to total protein: 1 μM
Experimental: as §1, §2

[1] = system: CA1 area of rat hippocampal slices; experiment: Long-term potentiation in CA1 area of hippocampal slices; type: cell-based
Rabbits = experiment: Small blood clot embolism model of brain ischemia (P50); type: in vivo; conditions: 50 mg/kg intravenously, bolus 5 minutes after embolization; 24 hours post-embolism
Experimental: Rabbits were embolized with small blood clots of varying size (from about 1 mg to about 4 mg) according to the procedure described by Lapchak et al. (Exp. Neurol., 188.279-285, 2004). […] In some subjects, fisetin treatment (50 mg/kg delivered intravenously) was given as a bolus 5 minutes after embolization. Twenty four (24) hours later, a naïve observer rated each treated or control animal as either behaviorally normal or abnormal. Rabbits judged “abnormal” included those with at least one of the following symptoms: ataxia, leaning, circling, lethargy, nystagmus, loss of balance, loss of sensation and occasionally paraplegia. […] The effective stroke dose or P50 value was then calculated as the amount of microclots (in mg) that produce behavioral impairment in 50% of the animals within a specific treatment group.

Sprague-Drawley rats = experiment: Morris water maze (spatial learning and memory); type: in vivo; conditions: 25 mg/kg by gavage
Experimental: This example describes use of the Morris water maze (MWM) to examine hippocampus-dependent spatial learning and memory in rats. The standard test consists of two parts; a training phase, which measures the ability of the animals to learn where a hidden platform is located within an opaque pool of water and a probe test, which is performed 24 hours after the last training trial and measures the ability of the animals to remember the location of the platform (Vorhees & Williams, Nature Protocols 1.848-58, 2(006))
To test whether oral administration of fisetin could increase spatial learning and/or memory, young male Sprague-Drawley rats (8 weeks old) were administered fisetin by gavage (25 mg/kg) beginning one day before the training phase and continuing throughout the 8 days of training. The rats were given four trials a day for 8 days. Retention of the spatial training was assessed 24 hours after the last training trial. The probe trial consisted of a 60 second free swim in the pool without the platform. Both the training and probe trials were monitored by a video camera mounted above the pool and all data were analyzed by software provided with the video-tracking program.

ERK = ERK activation in primary cortical neuron cultures (immunoblotting); type: cell-based, rat; conditions: 10 μM, 30 minutes to 6 hours
Experimental: The average phosphoprotein signal from the blots was quantified by densitometry and normalized to total protein,
Five (5) day old cortical cultures were next pretreated with 50 μM of the MEK inhibitor, PD98059, before the addition of 10 μM fisetin for 4 hours.
Primary cultures of rat cortical neurons were prepared as previously described by Li et al. (Neuron, 19:453-63, 1997, herein incorporated by reference as to the method). Analysis of ERK and CREB phosphorylation was performed using SDS-polyacrylamide gel electrophoresis and immunoblotting as previously described by Sagara et al. (J. Neurochem., 90:1144-1155, 2004) using equal amounts of protein from 5 day old cortical cultures. Blots were scanned and quantified using NIH Image. Results were analyzed using an unpaired Student's t-test.

C57BL/6 mice = experiment: MPTP-induced striatal dopamine loss; type: in vivo
Experimental: C57BL/6 mice from about 11 to 12 week old (20-25 g) were injected with a single dose of […] 1-methyl-4-phenyl-1,2,3,6-tetrahydropyridine (MPTP). MPTP is toxic to dopaminergic neurons in the substantia nigra, and produces many of the symptoms of Parkinson's disease. MPTP-treated mice have long been used as a model of human Parkinson's disease (see, e.g., reviews by Smeyne and Jackson-Lewis, Brain Bes. Mol. Brain Res., 134(1):57-66, 2005; Tetrud and Langston, Acta Neurol. Scand. Suppl., 126:35-40, 1989). After 8 days, the animals were euthanized and the striata dissected and assayed for dopamine content by HPLC combined with electrochemical detection, as previously described (Irwin e/al., Brain Res., 572:224-231, 1992). One group of untreated mice (n=4) and one group of MPTP-treated mice (n=4) received orally administered fisetin (25 mg/kg) beginning one day before treatment groups received MPTP and continuing for the same time period as MPTP treatment in treatment groups. Mice untreated with MPTP or fisetin (control) and mice treated with MPTP alone were also examined.

[2] = weak tetanic stimulation 15 pulses at 100 Hz

O=c1c(O)c(-c2ccc(O)c(O)c2)oc2cc(O)ccc12 [fisetin, 3,3′,4′,7-tetrahydroxyflavone]
effect on cAMP levels by itself (cAMP; 1 μM fisetin 5 minutes, 3 μM rolipram 30 minutes): no effect; also recorded: does not increase cAMP levels | potentiation of the effect of forskolin on cAMP levels (cAMP; then 5 μM forskolin for 15 minutes): nor did it potentiate | differentiation of the cells induced (PC12 cells): 75-80% | activation of the cAMP target protein kinase A (protein kinase A): does not result in the activation | p44 phosphoprotein signal normalized to total protein (ERK1 (p44); 5 min): 1.98±0.16 | p44 phosphoprotein signal normalized to total protein (ERK1 (p44); 10 min): 1.48±0.02 | p44 phosphoprotein signal normalized to total protein (ERK1 (p44); 20 min): 1.30±0.09 | increase in ERK 1 phosphorylation (ERK1 (p44); hippocampal slices, 1 μM fisetin): 2 fold | CREB phosphoprotein signal normalized to total protein (CREB; 5 min): 2.87±0.56 | CREB phosphoprotein signal normalized to total protein (CREB; 10 min): 2.72±0.12 | CREB phosphoprotein signal normalized to total protein (CREB; 20 min): 2.55±0.39 | increase in CREB phosphorylation (CREB; hippocampal slices, fisetin): ~3 fold | induction of LTP following weak tetanic stimulation ([1]; 15 pulses at 100 Hz, fisetin 20 minutes prior to, during and after): LTP was induced; also recorded: facilitates the induction of LTP | effect on APV-dependent inhibition of excitatory postsynaptic potentials ([1]; in the presence of APV): no effect | effect on basal synaptic transmission ([1]; no tetanus): no direct effect | maximal effective dose for facilitation of LTP induction [1, 2]: 1 µM | persistence of facilitated LTP [1, 2]: at least 60 minutes | P50 value (mg clot that produce behavioral deficits in 50% of the animals) (Rabbits): 2.18 ± 0.42 mg | effect on swim speed or thigmotaxis (Sprague-Drawley rats): no significant effect | ability of the rats to learn the location of the hidden platform (Sprague-Drawley rats; 8 days of training): no clear effect | probe test: time in the quadrant where the platform had been located (spatial memory) (Sprague-Drawley rats; 24 hours after last training trial, vs vehicle): significantly more time; also recorded: enhances spatial memory | ERK activation (ERK): induced ERK activation | striatal dopamine concentration (C57BL/6 mice; MPTP and fisetin 25 mg/kg oral): at least as high as control | striatal dopamine concentration (C57BL/6 mice; fisetin alone 25 mg/kg oral, no MPTP): highest concentrations of striatal dopamine
